PubChem BioAssay AID330 (DTP/NCI, 2004)
Inconclusive results and toxic doses are left out. How the source made its calls: active means survival T/C of 150% or more; inactive means T/C below 125% in these data.

Tested on: P388 leukemia ip, CD2F1 mice, survival T/C
Experiment: NCI In Vivo Anticancer Drug Screen. Data for tumor model P388 Leukemia (intraperitoneal) in CD2F1 (CDF1) mice
Settings: endpoint: median survival time, higher = longer survival
Procedure, shortened: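 Mice carrying the transplanted tumor received test compound or vehicle. Survival was recorded in each group, and the value is the treated-group measurement divided by that of the vehicle-treated control group.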

[1] = dose: 50.0 mg/kg/injection, schedule: Q01DX009 (ip), vehicle: Klucel (hydroxypropylcellulose) (HPC)
[2] = dose: 100.0 mg/kg/injection, schedule: Q01DX009 (ip), vehicle: Klucel (hydroxypropylcellulose) (HPC)
[3] = dose: 200.0 mg/kg/injection, schedule: Q01DX009 (ip), vehicle: Klucel (hydroxypropylcellulose) (HPC)
[4] = dose: 100.0 mg/kg/injection, schedule: Q01DX001 (ip), vehicle: Klucel (hydroxypropylcellulose) (HPC)
[5] = dose: 60.0 mg/kg/injection, schedule: Q01DX005 (ip), vehicle: saline with Tween-80
[6] = dose: 25.0 mg/kg/injection, schedule: Q04DX003 (ip), vehicle: saline with Tween-80
[7] = dose: 50.0 mg/kg/injection, schedule: Q04DX003 (ip), vehicle: saline with Tween-80
[8] = dose: 100.0 mg/kg/injection, schedule: Q04DX003 (ip), vehicle: saline with Tween-80
[9] = dose: 50.0 mg/kg/injection, schedule: Q01DX005 (ip), vehicle: Klucel (hydroxypropylcellulose) (HPC)
[10] = dose: 100.0 mg/kg/injection, schedule: Q01DX005 (ip), vehicle: Klucel (hydroxypropylcellulose) (HPC)
[11] = dose: 200.0 mg/kg/injection, schedule: Q01DX005 (ip), vehicle: Klucel (hydroxypropylcellulose) (HPC)
[12] = dose: 12.5 mg/kg/injection, schedule: Q04DX003 (ip), vehicle: saline with Tween-80
[13] = dose: 200.0 mg/kg/injection, schedule: Q04DX003 (ip), vehicle: saline with Tween-80
[14] = dose: 400.0 mg/kg/injection, schedule: Q04DX003 (ip), vehicle: saline with Tween-80
[15] = dose: 100.0 mg/kg/injection, schedule: Q04DX002 (ip), vehicle: saline with Tween-80
[16] = dose: 200.0 mg/kg/injection, schedule: Q04DX002 (ip), vehicle: saline with Tween-80
[17] = dose: 50.0 mg/kg/injection, schedule: Q01DX009 (ip), vehicle: saline with Tween-80
[18] = dose: 50.0 mg/kg/injection, schedule: Q01DX005 (ip), vehicle: saline with Tween-80
[19] = dose: 100.0 mg/kg/injection, schedule: Q01DX005 (ip), vehicle: saline with Tween-80
[20] = dose: 200.0 mg/kg/injection, schedule: Q01DX005 (ip), vehicle: saline with Tween-80
[21] = dose: 100.0 mg/kg/injection, schedule: Q01DX009 (ip), vehicle: saline with Tween-80
[22] = dose: 200.0 mg/kg/injection, schedule: Q01DX009 (ip), vehicle: saline with Tween-80

Measured: T/C

O=S(=O)(Cc1ccccc1)C(c1ccccc1)S(=O)(=O)Cc1ccccc1
inactive: [1] 96 % of control | [2] 91 % of control | [3] 100 % of control

CC1CCC2(CC1)CC(=O)N(N1CCOCC1)C(=O)C2
inactive: dose: 60.0 mg/kg/injection, schedule: Q01DX005 (ip), vehicle: suspension in saline 99 % of control | dose: 120.0 mg/kg/injection, schedule: Q01DX005 (ip), vehicle: suspension in saline 99 % of control | dose: 240.0 mg/kg/injection, schedule: Q01DX005 (ip), vehicle: suspension in saline 102 % of control

Cc1cccc(N=Nc2c(-c3ccccc3)nn(C(N)=S)c2C)c1C
inactive: dose: 100.0 mg/kg/injection, schedule: Q04DX002 (ip), vehicle: Klucel (hydroxypropylcellulose) (HPC) 94 % of control | dose: 200.0 mg/kg/injection, schedule: Q04DX002 (ip), vehicle: Klucel (hydroxypropylcellulose) (HPC) 105 % of control | dose: 400.0 mg/kg/injection, schedule: Q04DX002 (ip), vehicle: Klucel (hydroxypropylcellulose) (HPC) 94 % of control

CNC(=S)N\N=C/C(/C=C/c1ccccc1)=N\NC(=S)NC
inactive: [4] 90 % of control | dose: 200.0 mg/kg/injection, schedule: Q01DX001 (ip), vehicle: Klucel (hydroxypropylcellulose) (HPC) 100 % of control

C/C(=N\Nc1ccc([N+](=O)[O-])cc1[N+](=O)[O-])c1ccc[nH]1
inactive: dose: 15.0 mg/kg/injection, schedule: Q01DX005 (ip), vehicle: saline with Tween-80 96 % of control | dose: 30.0 mg/kg/injection, schedule: Q01DX005 (ip), vehicle: saline with Tween-80 87 % of control | [5] 89 % of control

O=C/C=C/c1ccc([N+](=O)[O-])cc1
inactive: [6] 100 % of control | [7] 110 % of control | [8] 105 % of control

O=C1NC(=O)C(CCCCCl)N1 (centres undefined)
inactive: [9] 100 % of control | [10] 102 % of control | [11] 98 % of control

CC(SC(SC(C)C(=O)O)c1ccccc1)C(=O)O (centres undefined)
inactive: dose: 100.0 mg/kg/injection, schedule: Q01DX001 (ip), vehicle: other 105 % of control | dose: 200.0 mg/kg/injection, schedule: Q01DX001 (ip), vehicle: other 107 % of control | dose: 400.0 mg/kg/injection, schedule: Q01DX001 (ip), vehicle: other 98 % of control

O=c1[nH]c2nc3ccccc3n2nc1-c1ccccc1
inactive: [4] 89 % of control

c1cc2c(c(NC3=NCCCO3)c1)CCCC2
inactive: [12] 108 % of control | [6] 108 % of control | [7] 100 % of control

CN(C)c1ccc(/C=C/c2ccnc3ccccc23)cc1Cl
inactive: [12] 105 % of control | [6] 96 % of control | [7] 95 % of control

O=C(CC(=O)Oc1ccc(Cl)cc1Cl)Oc1ccc(Cl)cc1Cl
inactive: [8] 95 % of control | [13] 91 % of control | [14] 100 % of control

COc1ccc(C2CC(=O)N(c3ncccn3)C(=O)C2)cc1
inactive: dose: 100.0 mg/kg/injection, schedule: Q04DX003 (ip), vehicle: saline 103 % of control | dose: 200.0 mg/kg/injection, schedule: Q04DX003 (ip), vehicle: saline 94 % of control | dose: 400.0 mg/kg/injection, schedule: Q04DX003 (ip), vehicle: saline 102 % of control

COc1cccc(/C=C/C(=O)c2ccc(Cl)cc2)c1OC
inactive: [8] 100 % of control | [13] 100 % of control | [14] 90 % of control

COc1cccc2c1C(=O)c1c(O)c3c(c(O)c1C2=O)C[C@@](O)(C(=O)COC(=O)c1ccccc1)C[C@@H]3OC1CC(N)C(O)C(C)O1 (some centres undefined)
active: dose: 0.5 mg/kg/injection, schedule: Q01DX009 (ip), vehicle: saline sonified 168 % of control | dose: 1.0 mg/kg/injection, schedule: Q01DX009 (ip), vehicle: saline sonified 186 % of control | dose: 2.0 mg/kg/injection, schedule: Q01DX009 (ip), vehicle: saline sonified 190 % of control

Nc1ccc(S(=O)(=O)CCCl)cc1
inactive: dose: 12.5 mg/kg/injection, schedule: Q04DX003 (ip), vehicle: Klucel (hydroxypropylcellulose) (HPC) 96 % of control | dose: 25.0 mg/kg/injection, schedule: Q04DX003 (ip), vehicle: Klucel (hydroxypropylcellulose) (HPC) 102 % of control | dose: 50.0 mg/kg/injection, schedule: Q04DX003 (ip), vehicle: Klucel (hydroxypropylcellulose) (HPC) 105 % of control | dose: 100.0 mg/kg/injection, schedule: Q04DX003 (ip), vehicle: Klucel (hydroxypropylcellulose) (HPC) 107 % of control | dose: 200.0 mg/kg/injection, schedule: Q04DX003 (ip), vehicle: Klucel (hydroxypropylcellulose) (HPC) 112 % of control

C=C1C(=O)OC2CC3(C)OC3CCC3(C)OC3CC12 (centres undefined)
inactive: dose: 7.75 mg/kg/injection, schedule: Q01DX005 (ip), vehicle: Klucel (hydroxypropylcellulose) (HPC) 105 % of control | dose: 15.5 mg/kg/injection, schedule: Q01DX005 (ip), vehicle: Klucel (hydroxypropylcellulose) (HPC) 101 % of control | dose: 31.0 mg/kg/injection, schedule: Q01DX005 (ip), vehicle: Klucel (hydroxypropylcellulose) (HPC) 109 % of control | dose: 62.0 mg/kg/injection, schedule: Q01DX005 (ip), vehicle: Klucel (hydroxypropylcellulose) (HPC) 105 % of control

O=C(Sc1ccc(Cl)cc1)N1CCN(C(=O)Sc2ccc(Cl)cc2)CC1
inactive: [1] 92 % of control | [2] 90 % of control | [3] 94 % of control

CC(C)(O)c1ccccc1[S+]1OC(C)(C)c2ccccc21 (centres undefined)
inactive: [15] 109 % of control | [16] 112 % of control | dose: 400.0 mg/kg/injection, schedule: Q04DX002 (ip), vehicle: saline with Tween-80 109 % of control

OC(Nc1nccs1)C(F)(F)F (centres undefined)
inactive: dose: 12.5 mg/kg/injection, schedule: Q01DX009 (ip), vehicle: saline 99 % of control | dose: 25.0 mg/kg/injection, schedule: Q01DX009 (ip), vehicle: saline 100 % of control | [17] 95 % of control | dose: 50.0 mg/kg/injection, schedule: Q01DX009 (ip), vehicle: saline 101 % of control

O/C(=C/c1ncnc2ccccc12)c1cccc(Cl)c1
inactive: [5] 102 % of control | dose: 120.0 mg/kg/injection, schedule: Q01DX005 (ip), vehicle: saline with Tween-80 92 % of control

CNC(=O)N(C)c1nc(-c2ccccc2)c(-c2ccccc2)n1Cc1ccc(Cl)cc1
inactive: dose: 50.0 mg/kg/injection, schedule: Q04DX002 (ip), vehicle: saline with Tween-80 94 % of control | [15] 99 % of control | [16] 92 % of control

CC(C)(C=C(c1ccccc1)c1ccccc1)C=C(c1ccccc1)c1ccccc1
inactive: [18] 95 % of control | [19] 98 % of control | [20] 95 % of control

Cc1cc2c(=O)[nH]c(N)nc2nc1C
inactive: [18] 100 % of control | [19] 96 % of control | [20] 102 % of control

O=C(O)CCC(=O)c1ccc2ccc3cccc4ccc1c2c34
inactive: [9] 102 % of control | [17] 101 % of control | [10] 103 % of control | [21] 115 % of control | [11] 99 % of control

[CH3][Ga][CH3].[CH3][Ga][CH3].[CH3][Ga][CH3].[CH3][Ga][CH3].[OH3+].[OH3+].[OH3+].[OH3+]
inactive: dose: 5.0 mg/kg/injection, schedule: Q04DX003 (ip), vehicle: saline with Tween-80 90 % of control | dose: 10.0 mg/kg/injection, schedule: Q04DX003 (ip), vehicle: saline with Tween-80 90 % of control

COc1cc2c(NCCCCCCO[N+](=O)[O-])ncnc2c(OC)c1OC
inactive: [9] 100 % of control | [10] 103 % of control | [11] 100 % of control

Nc1nc(N)c2cnnn2n1
inactive: [18] 95 % of control | [19] 102 % of control | [20] 110 % of control

CC1CN(C(=O)Nc2ccc([N+](=O)[O-])cc2)CC(C)O1 (centres undefined)
inactive: [17] 96 % of control | [21] 87 % of control | [22] 89 % of control

CN(CCN1C(=O)c2cccc3cc([N+](=O)[O-])cc(c23)C1=O)CCN1C(=O)c2cccc3cc([N+](=O)[O-])cc(c23)C1=O
inactive: [18] 98 % of control | [19] 97 % of control | [20] 114 % of control

Cc1nnc2n1N=C1CC(C)(C)CC(=O)C1S2 (centres undefined)
inactive: [17] 101 % of control | [21] 102 % of control | [22] 94 % of control
